System: primary mouse hepatocytes
Assay: Gene expression in primary mouse hepatocytes, GTX vs non-GTX (four-gene classifier, 24 h)
Details: for score 1700007K13RIK / score DDIT4L / score GAS2L3 / score SPC25 / Ratios of gene expression treated/untreated 1700007K13RIK / Ratios of gene expression treated/untreated DDIT4L / Ratios of gene expression treated/untreated GAS2L3 / Ratios of gene expression treated/untreated SPC25: 24 h exposure; for score 1700007K13RIK / score DDIT4L / score GAS2L3 / score SPC25: average of four replicates; for Ratios of gene expression treated/untreated 1700007K13RIK / Ratios of gene expression treated/untreated DDIT4L / Ratios of gene expression treated/untreated GAS2L3 / Ratios of gene expression treated/untreated SPC25: log 2 ratio, concentration per Table 4; for Total score: sum of scores for four genes, 0 = not genotoxic, 1, 2, 3 or 4 = genotoxic
Description: Hepatocyte cells were incubated and exposed to a compound for 24 h before being harvested for RNA isolation.
The results of the gene expression analysis may then be fed into a statistical software package such as R, Splus, or Microsoft Excel. […] If none or only one of these criteria were met, no point was scored.
For each of the four genes mentioned in the table (1700007K13RIK, GAS2L3, SPC25, DDIT4L), a statistical comparison was made between the normalized expression data for these genes. […] If none or only one of these criteria were met, no point was scored.
For each compound, the sum of the scores for four genes is taken. If this score is 0, a compound can be believed not to be genotoxic. If this score is 1, 2, 3 or 4, a compound is genotoxic.
If none or only one of these criteria were met, no point was scored.

| SMILES | score 1700007K13RIK | score DDIT4L | score GAS2L3 | score SPC25 | Ratios of gene expression treated/untreated 1700007K13RIK | Ratios of gene expression treated/untreated DDIT4L | Ratios of gene expression treated/untreated GAS2L3 | Ratios of gene expression treated/untreated SPC25 | Total score |
| --- | --- | --- | --- | --- | --- | --- | --- | --- | --- |
| CCC[CH2][Sn]([CH2]CCC)([CH2]CCC)[O][Sn]([CH2]CCC)([CH2]CCC)[CH2]CCC [TBTO, Bis(tri-n-butyltin)oxide] | 0 | 0 | 0 | 0 | 0.09131 | 0.319 | −0.0161 | 0.2186 | 0 |
| CCCCCCCCCCCCCC(=O)O[C@@H]1[C@@H](C)[C@@]2(O)[C@@H](C=C(CO)C[C@]3(O)C(=O)C(C)=C[C@@H]23)[C@@H]2C(C)(C)[C@]12OC(C)=O [TPA, Tetradecanoylphorbol Acetate] | 0 | 0 | 0 | 0 | −0.0617 | 0.05594 | 0.01747 | 0.03809 | 0 |
| Clc1cc2c(cc1Cl)Oc1cc(Cl)c(Cl)cc1O2 [TCDD, 2,3,7,8-Tetrachlorodibenzodioxin] | 0 | 0 | 0 | 0 | 0.0752 | 0.2646 | 0.22 | 0.01802 | 0 |
| ClC(Cl)(Cl)Cl [CCI4, Carbon tetrachloride] | 0 | 0 | 0 | 0 | 0.3906 | 0.4894 | −0.3188 | 0.3544 | 0 |
| Cc1cccc(Nc2cc(Cl)nc(SCC(=O)O)n2)c1C [Wyeth, Wy-14,643] | 0 | 0 | 0 | 0 | −0.3527 | −0.1013 | −0.7113 | −0.0756 | 0 |

Source: patent publication US20120122727A1, “IN VITRO METHOD FOR PREDICTING WHETHER A COMPOUND IS GENOTOXIC IN VIVO” (priority 2009, published 2012)
